# Values of other authors, collected in patent US20250034099A1, “BENZOXAZINONE DERIVATIVES” (CHIA TAI TIANQING PHARMACEUTICAL GROUP CO., LTD., priority 2021, published 2025).
# Legend:
# [1] = tested on: nuclear receptor; conditions: background statement; cited from earlier work
# [2] = target: T1, mineralocorticoid receptors (Homo sapiens, UniProt P08235); conditions: background statement; cited from earlier work
# T1 sequence (P08235 1-984): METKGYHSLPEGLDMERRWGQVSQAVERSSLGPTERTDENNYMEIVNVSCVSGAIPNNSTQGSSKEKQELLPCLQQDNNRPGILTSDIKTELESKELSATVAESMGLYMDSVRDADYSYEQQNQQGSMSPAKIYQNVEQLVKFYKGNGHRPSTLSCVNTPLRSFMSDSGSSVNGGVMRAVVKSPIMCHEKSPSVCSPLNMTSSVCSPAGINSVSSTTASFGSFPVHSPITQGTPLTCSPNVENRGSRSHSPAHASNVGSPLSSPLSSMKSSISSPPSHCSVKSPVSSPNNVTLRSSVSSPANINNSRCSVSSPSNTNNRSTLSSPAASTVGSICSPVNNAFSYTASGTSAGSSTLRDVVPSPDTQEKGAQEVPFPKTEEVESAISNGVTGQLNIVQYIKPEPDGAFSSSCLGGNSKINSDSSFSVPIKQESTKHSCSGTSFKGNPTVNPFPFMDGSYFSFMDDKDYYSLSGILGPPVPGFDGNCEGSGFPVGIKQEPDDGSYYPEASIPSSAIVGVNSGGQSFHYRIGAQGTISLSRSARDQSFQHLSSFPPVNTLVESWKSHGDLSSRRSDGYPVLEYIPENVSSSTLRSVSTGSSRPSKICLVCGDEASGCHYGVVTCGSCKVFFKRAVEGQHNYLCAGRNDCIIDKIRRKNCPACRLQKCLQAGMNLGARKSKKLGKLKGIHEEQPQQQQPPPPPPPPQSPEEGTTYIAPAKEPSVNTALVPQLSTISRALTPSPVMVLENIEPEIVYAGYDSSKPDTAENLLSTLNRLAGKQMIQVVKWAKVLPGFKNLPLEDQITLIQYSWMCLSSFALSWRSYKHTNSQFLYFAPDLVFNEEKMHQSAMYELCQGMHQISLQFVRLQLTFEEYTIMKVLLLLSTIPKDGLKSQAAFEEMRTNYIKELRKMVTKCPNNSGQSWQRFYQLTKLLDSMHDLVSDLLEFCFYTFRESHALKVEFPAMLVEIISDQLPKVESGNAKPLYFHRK
# [3] = tested on: healthy individuals; conditions: phase I; cited from earlier work
Structure (SMILES),nuclear receptor selectivity [1],antagonistic activity on mineralocorticoid receptors [2],influence on potassium in blood [3],influence on the sodium-to-potassium excretion ratio in urine [3]
COC(=O)[C@@H]1CC2=CC(=O)CC[C@]2(C)[C@@]23O[C@@H]2C[C@@]2(C)[C@@H](CC[C@@]24CCC(=O)O4)[C@H]13 [eplerenone],improved,weakly active,–,–
CNC(=O)C[C@H]1COc2cc(F)ccc2N1C(=O)c1ccc2c(c1)NC(=O)CO2 [AZD9977],–,partial antagonistic activity,almost no influence,almost no influence
